ChEMBL document CHEMBL5518215, “Unlocking Antibacterial Potential: Key-Site-Based Regulation of Antibacterial Spectrum of Peptides” (J Med Chem, 2024)
The source made the active and inactive calls. No cut-off for these calls is given here.

What was measured:
Cell membrane [1] = assay: Induction of cytoplasmic membrane disruption in Escherichia coli 25922 assessed as increase in fluorescence intensity at 2 to 64 uM by DiSC3-5 probe based assay; assay type: cell membranes; settings: dose 2-64 µM, time <= 30.0 min, TDE = time-dependent effect
Listeria monocytogenes = assay: Antimicrobial activity against Listeria monocytogenes 1.10753 assessed as bacterial killing measured after 16 hrs incubation; assay type: functional
Escherichia coli [2] = assay: Antimicrobial activity against Escherichia coli 25922 assessed as absence bacterial growth measured after 18 to 24 hrs incubation in presence of NH4Cl by NCCLS method; assay type: functional; settings: time 18-24 hrs
Escherichia coli [3] = assay: Antimicrobial activity against Escherichia coli 25922 assessed as absence bacterial growth measured after 18 to 24 hrs incubation in presence of 12.5% serum by NCCLS method; assay type: functional; settings: time 18-24 hrs
Enterococcus faecalis = assay: Antimicrobial activity against Enterococcus faecalis 29212 assessed as bacterial killing measured after 16 hrs incubation; assay type: functional
Acinetobacter baumannii [4] = assay: Antimicrobial activity against Acinetobacter baumannii 1.6769 assessed as absence bacterial growth measured after 18 to 24 hrs incubation by NCCLS method; assay type: functional; settings: time 18-24 hrs
[5] = Cytotoxicity against porcine IPEC-J2 cells assessed as cell survival rate measured after 8 hrs by MTT assay; assay type: toxicity, cell-based, Sus scrofa; settings: pig
Pseudomonas aeruginosa = assay: Antimicrobial activity against Pseudomonas aeruginosa 27853 assessed as absence bacterial growth measured after 18 to 24 hrs incubation by NCCLS method; assay type: functional; settings: time 18-24 hrs
Staphylococcus aureus [6] = assay: Antibacterial activity against Staphylococcus aureus 29213 assessed as bactericidal rate by measuring reduction in bacterial count at 1 times MBC concentration measured at 15 secs by time-kill kinetic assay; assay type: functional; settings: time 15 sec; 15 s
Escherichia coli [7] = assay: Antimicrobial activity against Escherichia coli K88 assessed as absence bacterial growth measured after 18 to 24 hrs incubation by NCCLS method; assay type: functional; settings: time 18-24 hrs
Salmonella typhimurium = assay: Antimicrobial activity against Salmonella typhimurium C7731 assessed as absence bacterial growth measured after 18 to 24 hrs incubation by NCCLS method; assay type: functional, Salmonella enterica subsp. enterica serovar Typhimurium; settings: Salmonella enterica, time 18-24 hrs
Staphylococcus aureus [8] = assay: Antimicrobial activity against Methicillin-resistant Staphylococcus aureus 43300 assessed as absence bacterial growth measured after 18 to 24 hrs incubation by NCCLS method; assay type: functional; settings: time 18-24 hrs
Staphylococcus aureus [9] = assay: Inhibition of respiratory chain dehydrogenase activity in mid-log phase Staphylococcus aureus 29213 measured after 4 hrs by Red-tetraazoline based spectrophotometry assay
Lipoteichoic acid = assay: Binding affinity to Staphylococcus aureus LTA assessed as fluorescence intensity measured after 1 hr by spectrophotometry; settings: dose 1-64 µM
Escherichia coli [10] = assay: Antimicrobial activity against Escherichia coli 25922 assessed as absence bacterial growth measured after 18 to 24 hrs incubation in presence of ZnCl2 by NCCLS method; assay type: functional; settings: time 18-24 hrs
[11] = Cytotoxicity against human HEK-293T cells assessed as cell survival rate measured after 8 hrs by MTT assay; assay type: toxicity, cell-based
Acinetobacter baumannii [12] = assay: Antimicrobial activity against Acinetobacter baumannii 1.6769 assessed as bacterial killing measured after 16 hrs incubation; assay type: functional
Cell membrane [13] = assay: Induction of cytoplasmic membrane disruption in Staphylococcus aureus 29213 assessed as increase in fluorescence intensity at 2 to 64 uM by DiSC3-5 probe based assay; assay type: cell membranes; settings: dose 2-64 µM, time <= 30.0 min, TDE = time-dependent effect
Staphylococcus aureus [14] = assay: Antimicrobial activity against Staphylococcus aureus 29213 assessed as bacterial killing measured after 16 hrs incubation; assay type: functional
Staphylococcus aureus [15] = assay: Induction of morphological changes in Staphylococcus aureus 29213 assessed as changes in cell surface by measuring signs of disruption by using scanning electron microscopy; assay type: functional, organism-based
Escherichia coli [16] = assay: Antimicrobial activity against Escherichia coli 25922 assessed as absence bacterial growth measured after 18 to 24 hrs incubation in presence of 50% serum by NCCLS method; assay type: functional; settings: time 18-24 hrs
Cell membrane [17] = assay: Induction of cytoplasmic membrane disruption in Staphylococcus aureus 29213 assessed as increase in fluorescence intensity measured upto 30 mins by DiSC3-5 probe based assay; assay type: cell membranes; settings: dose 2-64 µM
[18] = tested on: Staphylococcus epidermidis; assay: Antimicrobial activity against Staphylococcus epidermidis 12228 assessed as bacterial killing measured after 16 hrs incubation; assay type: functional
Lipopolysaccharide (LPS) = assay: Binding affinity to Escherichia coli O111:B4 LPS assessed as fluorescence intensity measured after 1 hr by spectrophotometry; assay type: subcellular; settings: dose 2-16 µM
Erythrocyte = assay: Hemolytic activity in human RBC at effective concentration measured after 1 hr by microplate reader analysis; assay type: toxicity, cell-based
[19] = Antimicrobial activity against Salmonella pullorum C7913 assessed as absence bacterial growth measured after 18 to 24 hrs incubation by NCCLS method; assay type: functional, Salmonella enterica subsp. enterica serovar Pullorum; settings: Salmonella enterica, time 18-24 hrs
Escherichia coli [20] = assay: Antibacterial activity against Escherichia coli 25922 assessed as absence bacterial growth measured after 18 to 24 hrs incubation at pH 10 by NCCLS method; assay type: functional; settings: time 18-24 hrs
[21] = Hemolytic activity in human RBC at effective concentration at 128 uM measured after 1 hr by microplate reader relative to control; assay type: toxicity, cell-based, Erythrocyte; settings: human red blood cells (erythrocytes), read-out: Activity
Escherichia coli [22] = assay: Antibacterial activity against Escherichia coli 25922 assessed as absence bacterial growth measured after 18 to 24 hrs incubation at pH 8 by NCCLS method; assay type: functional; settings: time 18-24 hrs
[23] = Cytotoxicity against porcine IPEC-J2 cells assessed as cell survival rate at 64 uM measured after 8 hrs by MTT assay relative to control; assay type: toxicity, cell-based, Sus scrofa; settings: pig, read-out: Activity
Cell membrane [24] = assay: Induction of cytoplasmic membrane disruption in Escherichia coli 25922 assessed as increase in fluorescence intensity measured upto 30 mins by DiSC3-5 probe based assay; assay type: cell membranes; settings: dose 2-64 µM
Staphylococcus aureus [25] = assay: Induction of morphological changes in Staphylococcus aureus 29213 assessed as cavity between cell wall and cytoplasmic membrane by using transmission electron microscopy; assay type: functional, organism-based
Cell membrane [26] = assay: Induction of membrane disruption in Staphylococcus aureus 29213 assessed as increase in extracellular ATP level at 4 to 32 uM measured after 1 hr; assay type: cell membranes; settings: dose 4-32 µM
Escherichia coli [27] = assay: Antimicrobial activity against Escherichia coli 25922 assessed as absence bacterial growth measured after 18 to 24 hrs incubation in presence of FeCl3 by NCCLS method; assay type: functional; settings: time 18-24 hrs
Escherichia coli [28] = assay: Antibacterial activity against Escherichia coli 25922 assessed as absence bacterial growth measured after 8 hrs treated with H2O2; assay type: functional
Escherichia coli [29] = assay: Induction of ROS production in mid-log phase Escherichia coli 25922 assessed as fluorescence intensity at 1 to 64 uM by DCFH-DA assay; assay type: functional, organism-based; settings: dose 1-64 µM
Staphylococcus aureus [30] = assay: Antimicrobial activity against Staphylococcus aureus 29213 assessed as absence bacterial growth measured after 18 to 24 hrs incubation by NCCLS m; assay type: functional; settings: time 18-24 hrs
[31] = Cytotoxicity against mouse RAW264.7 cells assessed as cell survival rate at 32 to 64 uM measured after 8 hrs by MTT assay relative to control; assay type: toxicity, cell-based; settings: dose 32-64 µM, read-out: Activity
Escherichia coli [32] = assay: Induction of morphological changes in Escherichia coli 25922 assessed as membrane damage and cytoplasmic leakage by using transmission electron microscopy; assay type: functional, organism-based
Escherichia coli [33] = assay: Antibacterial activity against Escherichia coli 25922 assessed as bactericidal rate by measuring reduction in bacterial count at 1 times MBC concentration measured at 15 secs by time-kill kinetic assay; assay type: functional; settings: time 15 sec; 15 s
[34] = tested on: Staphylococcus epidermidis; assay: Antimicrobial activity against Staphylococcus epidermidis 12228 assessed as absence bacterial growth measured after 18 to 24 hrs incubation by NCCLS method; assay type: functional; settings: time 18-24 hrs

In the case of H-GKLWLKAGKLWLKGGKLWLKG-NH2, the Activity (Cell membrane [1]) is reported as “Tde”, the MBC (Listeria monocytogenes) is reported as > 32 µM and the MIC (Escherichia coli [2]) is reported as 2 µM. For the same substance, the MIC (Escherichia coli [3]) was 16 µM, the MBC (Enterococcus faecalis) was 8 µM and the MIC (Acinetobacter baumannii [4]) was 2 µM. The IC50 at 8 h [5] was > 64 µM, the MIC (Pseudomonas aeruginosa) was 4 µM and the “inhibition (INH)” value (Staphylococcus aureus [6]) was 99.99%. It also gave an MIC (Escherichia coli [7]) of 0.5 µM, an MIC (Salmonella typhimurium) of 8 µM and an MIC (Staphylococcus aureus [8]) of 4 µM. The inhibition (Staphylococcus aureus [9]) was “Active”, the Activity (Lipoteichoic acid) was “Dose-Dependent Effect” and the MIC (Escherichia coli [10]) was 2 µM. For the same substance, the IC50 at 8 h [11] was > 64 µM, the MBC (Acinetobacter baumannii [12]) was 2 µM and the Activity (Cell membrane [13]) was “Tde”. For the same substance, the MBC (Staphylococcus aureus [14]) was 8 µM, the Activity (Staphylococcus aureus [15]) was “Active” and the MIC (Escherichia coli [16]) was > 32 µM. For the same substance, the Activity (Cell membrane [17]) was “Dose-Dependent Effect”, the MBC [18] was 8 µM and the Activity (Lipopolysaccharide (LPS)) was “Dose-Dependent Effect”. The HC10 (Erythrocyte) was > 128 µM, the MIC [19] was 1 µM and the MIC (Escherichia coli [20]) was 2 µM. The hemolysis at 1 h, 128 µM [21] was < 10%, the MIC (Escherichia coli [22]) was 2 µM and the viability at 8 h, 64 µM [23] was > 80%. The Activity (Cell membrane [24]) was “Dose-Dependent Effect”, the Activity (Staphylococcus aureus [25]) was “Active” and the Activity (Cell membrane [26]) was “Active”. For the same substance, the MIC (Escherichia coli [27]) was 2 µM, the MIC (Escherichia coli [28]) was 2 µM and the Activity (Escherichia coli [29]) was “Active”. The MIC (Staphylococcus aureus [30]) was 4 µM, the viability at 8 h, up to 64 µM [31] was 60% and the Activity (Escherichia coli [32]) was “Active”. For the same substance, the “inhibition (INH)” value (Escherichia coli [33]) was 99.99% and the MIC [34] was 4 µM.
